“Also recorded” adds a separate entry of the source.
Columns and labels:
[1] = Testing of blood-brain barrier permeability; assay type: in vivo; conditions: mice, two minutes after intravenous administration
Protocol: Compounds of the present invention were intravenously administered to mice to determine their in vivo blood-brain barrier permeability. • (1) Mice utilized S1c:ICR weighing 30-40 g (7 weeks old, n=3) (Nippon SLC). • (2) A test compound was dissolved in 1N HCl, and then diluted with purified water, and injected via tail vein. Two minutes after administration, the mice, under ether anesthesia, were subjected to taking blood from the abdominal aorta with a heparin-treated syringe and removing the brain. • (3) After taking blood, blood samples were centrifuged at 14,000 rpm at 4° C. for 10 minutes, and their supernatants were kept at −80° C. as plasma sample. The brain (including cerebellum) was kept at −80° C. after its removal. • (4) The plasma sample, when used, was thawed, diluted with purified water, and then applied to a conditioned C18 solid-phase extraction cartridge (bond elute C18, 200 mg, Lot. 070864, Varian), followed by elution with methyl alcohol. • (5) The brain material, when used, were subjected to measuring its wet weight with the brain remaining frozen, and saline was added for homogenization. The homogenate was centrifuged for 10 minutes, and the supernatant was applied to a conditioned C18 solid-phase extraction cartridge and eluted with methyl alcohol. • (6) The test compound was detected at its maximum absorbance (a UV/VIS detector, Waters) and fluorescence (an FS-8020 fluorometer, Tosoh) employing high performance liquid chromatography. • (7) For each of the plasma and brain, the content of the test compound in the plasma or brain (%ID (injected dose)/ml or g) was determined, relative to the administered-dose.

[2] = Testing of acute toxicity, intravenous administration; conditions: male, Crj:CD1, mouse, in vivo, mice, observed up to 7 days, read-out: Maximum Tolerated Dose
Protocol: Acute toxicity of the inventive compounds was determined employing mice by intravenous administration. Male Crj:CD1 mice were used and divided into groups of 4 mice, with an average weight of each group of 30-34 g. Each compound was dissolved in saline, 1N HCl, or a mixture of 1N HCl/polyethylene glycol 400, and then diluted with distilled water for injection, and administered via tail vein. Up to 7 days after administration, observations were made.

[3] = tested on: neurofibrillary tangles (or phosphorylated tau protein); test: Staining of neurofibrillary tangles in brain sections of a patient with Alzheimer's disease (screening method); assay type: binding, human; conditions: for staining of neurofibrillary tangles (or phosphorylated tau protein): brain/hippocampus sections of Alzheimer's disease patient, 100 μM compound in 50% ethanol, fluorescence microscopy, compared with thioflavin S on adjacent section
Text: (§1) The following explanation is made about a method for screening the inventive compounds. • (1) Temporal lobe or hippocampus specimens of the brain of a patient who had been definitely diagnosed pathologically as Alzheimer's disease and of a normal aged individual were used. These specimens were provided from Fukushimura Hospital, our joint research facility, with the consent to their use for research purpose received from the bereaved family of the patient (BF Research Laboratories Institutional Ethics Board Permission No. RS-99-02). • (2) The brain tissues embedded in paraffin were sliced 6 or 8 μm thick, extended on slides, and dried. The paraffin-embedded brain sections were deparaffined by washing sequentially with xylene (10 minutes, twice), 100% ethanol (5 minutes, twice), 95% ethanol (5 minutes, twice), and a stream of water (10 minutes). • (3) Pre-treatment for staining with compounds of the present invention involved treating the sections for eliminating self-fluorescence due to lipofuscin. First, the deparaffined sections were immersed into a 10% formalin solution for 60 minutes and washed with PBS (phosphate-buffered saline) for 5 minutes, followed by immersion into a 0.25% solution of KMnO4 for 90 minutes. After washing twice with PBS for 2 minutes each, the sections were immersed into a solution of 0.1% K2S2O5/oxalic acid for about 30 seconds each, and then washed three times with PBS for 2 minutes each. • (4) About 150 μl of a 100 μM solution of a compound of the present invention dissolved in 50% ethanol was added dropwise onto the sections and allowed the reaction to be carried out for 10 minutes. The sections were dipped into tap water five times, and then 50% ethanol three to five times, followed by immediate classification. After that, the sections were immersed into PBS for 60 minutes, enclosed with Fluor Save Reagent (Calbiochem), and examined under UV-B excitation using a fluorescent microscope (Nikon, Eclips E800). Pictures were taken using a digital camera (Plaroid [sic] PDMCII).
Immunostaining was carried out as follows: • (1) After the sections were deparaffined, the sections were washed twice with distilled water for 2 minutes each, tissues were marked with an Immunopen. About 150 μl of 3% hydrogen peroxide (diluted in methanol) was added dropwise and allowed to stand at room temperature for 10 minutes. • (2) The sections were-washed twice with cold PBS-Tween 20 for 5 minutes each, and two drops of blocking serum were added and allowed the reaction to be carried out at 37° C. for 30 minutes. Excess water was removed, and two drops of pSer422, an antibody specific to phosphorylated tau (Wako Phosphorylated Tau Immunohistostain Kit 299-57301) and allowed the reaction to be carried out overnight at 4° C. • (3) On the next day, the sections were washed five times with cold PBS-Tween 20 for 2 minutes each, and two drops of a solution of goat anti-rabbit IgG conjugated to biotin were added and allowed the reaction to be carried out at 37° C. for 1 hour. […]

senile plaques = test: Staining of senile plaques in hippocampus sections of the brain of a patient with Alzheimer's disease; assay type: binding, human; conditions: compared with thioflavin S on adjacent section
Text: as §1

[4] = biological target: T1, Aβ1-40 taking β-sheet structures (Homo sapiens, UniProt P05067); test: Binding to amyloid β-protein on slides; conditions: Aβ1-40 on slides; 1 μM solution of test chemical
T1 construct: Aβ1-40 (Peptide Institute, Inc., Lot No. 520311, MW: 4329.8); purchased Peptide Institute, Inc. Lot No. 520311
T1 sequence (P05067 672-711 limits assumed): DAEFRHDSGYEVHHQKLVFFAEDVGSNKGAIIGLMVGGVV
Protocol: Properties of binding to amyloid β-protein were examined as follows: • (1) Aβ1-40 (Peptide Institute, Inc., Lot No. 520311, MW: 4329.8) was dissolved in 50 mM potassium phosphate buffer (pH 7.4) at a concentration of 500 μM, and incubated at 37° C. for 3 days or longer, thereby making the protein take β-sheet structures. • (2) After incubation, the Aβ solution was vortexed and diluted to 50 μM for use. • (3) 20 μl of the Aβ1-40 solution was dropped onto a poly-L-lysine-coated slide (MICRO SLIDE GLASS S7441, […]) and dried on an extender (Sakura PS-C2) at about 45° C. • (4) The Aβ1-40 on the slide was covered with 20 μl of 1 μM solution of a chemical to be tested, allowed to stand at room temperature for about 10 minutes, and then washed with a stream of water (tap water), followed by examination under a microscope.

| Compound | Brain content (blood-brain barrier permeability) [1] | Plasma content [1] | MTD at 7 days [2] [mg/kg] | staining of neurofibrillary tangles (or phosphorylated tau protein) [3] | staining of phosphorylated tau protein recognized by pSer422 antibody ([3]; hippocampus sections of Alzheimer's disease patient, adjacent section immunostained with pSer422) | staining of senile plaques (senile plaques) | binding to Aβ1-40 taking β-sheet structures (fluorescence) [4] |
| --- | --- | --- | --- | --- | --- | --- | --- |
| CNc1ccc(-c2ccc3ccccc3n2)cc1 [BF-158, 2-(4-(methylamino)phenyl)quinoline] | 9.7 % ID/g or ml | 1.8 % ID/g or ml | ≥ 10 |  |  |  |  |
| Nc1ccc(-c2ccc3ccccc3n2)cc1 [BF-170, 2-(4-(amino)phenyl)quinoline] | 9.1 % ID/g or ml | 1.4 % ID/g or ml | ≥ 10 | stained only neurofibrillary tangles (or phosphorylated tau protein) | stained phosphorylated tau protein which was recognized by pSer422 | stained only neurofibrillary tangles (or phosphorylated tau protein) | hardly bound to this Aβ1-40 (fluorescence was not observed); also recorded: hardly bound to the Aβ1-40 protein (fluorescence was not observed) |
| CN(C)c1ccc(-c2ccc3ccccc3n2)cc1 [Compound N-310, 2-(4-(dimethylamino)phenyl)quinoline] | 15.0 % ID/g or ml | 1.0 % ID/g or ml |  | stained neurofibrillary tangles (or phosphorylated tau protein) |  |  |  |
| CCN(CC)c1ccc(-c2ccc3ccccc3n2)cc1 [Compound N-313, 2-(4-(diethylamino)phenyl)quinoline] | 4.6 % ID/g or ml | 1.1 % ID/g or ml | ≥ 10 | stained neurofibrillary tangles (or phosphorylated tau protein) |  |  |  |
| Cc1ccc2ccc(-c3ccc(N(C)C)cc3)nc2c1 [SA-820, 2-(4-(dimethylamino)phenyl)-7-methylquinoline] |  |  |  |  |  | stained senile plaques (wedge-shaped arrowheads) with a clearly weaker degree than that of thioflavin S; also recorded: stained senile plaques (wedge-shaped arrowheads) with a clearly-weaker degree than that of thioflavin S |  |
| CN(C)c1ccc(-c2ccc3c(ccc4ccccc43)n2)cc1 [SA-821, 3-(4-(dimethylamino)phenyl)benzo(f)quinoline] |  |  |  |  |  | stained senile plaques (wedge-shaped arrowheads) with a clearly weaker degree than that of thioflavin S |  |
| Cc1ccc2c(c1)sc(-c1ccc(N(C)C)cc1)[n+]2C.[Cl-] [thioflavin T, reference compound] |  |  |  |  |  |  | significant binding to this Aβ1-40; also recorded: significant binding to the Aβ1-40 protein |
| thioflavin S [reference compound] |  |  |  | stained both senile plaques (wedge-shaped arrowheads) and neurofibrillary tangles (or phosphorylated tau protein); also recorded: stained both senile plaques and neurofibrillary tangles |  | stained both senile plaques (wedge-shaped arrowheads) and neurofibrillary tangles (or phosphorylated tau protein); also recorded: stained both senile plaques and neurofibrillary tangles |  |
